“And” between values parts separate entries of the source, which are not always exact repeats. Equal entries are not always repeated. Toxic doses and inconclusive results are not listed. Rule as the data show it: active = T/C of 150% or more; inactive = T/C below 125%.
Tested on: L1210 leukemia ip in BDF1 mice, survival T/C
Experiment: NCI In Vivo Anticancer Drug Screen. Data for tumor model L1210 Leukemia (intraperitoneal) in B6D2F1 (BDF1) mice
Settings: endpoint: mean survival time, higher = longer survival
Summary of the method: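 Read-out is survival time, reported as the treated-group measurement over the vehicle-control measurement.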

[1] = dose: 100.0 mg/kg/injection, schedule: Q04DX002 (ip), vehicle: Klucel (hydroxypropylcellulose) (HPC)
[2] = dose: 200.0 mg/kg/injection, schedule: Q04DX002 (ip), vehicle: Klucel (hydroxypropylcellulose) (HPC)
[3] = dose: 400.0 mg/kg/injection, schedule: Q04DX002 (ip), vehicle: Klucel (hydroxypropylcellulose) (HPC)
[4] = dose: 100.0 mg/kg/injection, schedule: Q01DX001 (ip), vehicle: Klucel (hydroxypropylcellulose) (HPC)
[5] = dose: 100.0 mg/kg/injection, schedule: Q01DX009 (ip), vehicle: Klucel (hydroxypropylcellulose) (HPC)
[6] = dose: 100.0 mg/kg/injection, schedule: Q04DX003 (ip), vehicle: Klucel (hydroxypropylcellulose) (HPC)
[7] = dose: 200.0 mg/kg/injection, schedule: Q01DX001 (ip), vehicle: Klucel (hydroxypropylcellulose) (HPC)
[8] = dose: 200.0 mg/kg/injection, schedule: Q01DX009 (ip), vehicle: Klucel (hydroxypropylcellulose) (HPC)
[9] = dose: 200.0 mg/kg/injection, schedule: Q04DX003 (ip), vehicle: Klucel (hydroxypropylcellulose) (HPC)
[10] = dose: 400.0 mg/kg/injection, schedule: Q01DX001 (ip), vehicle: Klucel (hydroxypropylcellulose) (HPC)
[11] = dose: 400.0 mg/kg/injection, schedule: Q01DX009 (ip), vehicle: Klucel (hydroxypropylcellulose) (HPC)
[12] = dose: 400.0 mg/kg/injection, schedule: Q04DX003 (ip), vehicle: Klucel (hydroxypropylcellulose) (HPC)
[13] = dose: 100.0 mg/kg/injection, schedule: Q01DX001 (ip), vehicle: saline
[14] = dose: 200.0 mg/kg/injection, schedule: Q01DX001 (ip), vehicle: saline
[15] = dose: 400.0 mg/kg/injection, schedule: Q01DX001 (ip), vehicle: saline

Measured: T/C

COc1cccc(NC(=S)NC(=O)c2ccccc2)c1
inactive: [1] 110 % of control | [2] 92 % of control | [3] 103 % of control

Cc1ncc(CO)c(C)c1O
inactive: dose: 0.03 mg/kg/injection, schedule: Q02DX010 (ip), vehicle: saline 118 % of control | dose: 0.04 mg/kg/injection, schedule: Q02DX010 (ip), vehicle: saline 118 % of control | dose: 0.07 mg/kg/injection, schedule: Q02DX010 (ip), vehicle: saline 123 % of control | dose: 0.15 mg/kg/injection, schedule: Q02DX010 (ip), vehicle: saline 86 % of control | dose: 0.23 mg/kg/injection, schedule: Q02DX010 (ip), vehicle: saline 86 % of control | dose: 12.5 mg/kg/injection, schedule: Q01DX009 (ip), vehicle: saline 98 % of control | dose: 22.81 mg/kg/injection, schedule: Q01DX Z (ip), vehicle: carboxymethylcellulose (CMC) 102 % of control | dose: 25.0 mg/kg/injection, schedule: Q01DX009 (ip), vehicle: saline 95 % of control | dose: 45.62 mg/kg/injection, schedule: Q01DX Z (ip), vehicle: carboxymethylcellulose (CMC) 101 % of control | dose: 50.0 mg/kg/injection, schedule: Q01DX009 (ip), vehicle: saline 103 % of control | dose: 91.25 mg/kg/injection, schedule: Q01DX Z (ip), vehicle: carboxymethylcellulose (CMC) 105 % of control | dose: 100.0 mg/kg/injection, schedule: Q01DX009 (ip), vehicle: saline 102 % of control | dose: 182.3 mg/kg/injection, schedule: Q01DX Z (ip), vehicle: carboxymethylcellulose (CMC) 110 % of control | dose: 200.0 mg/kg/injection, schedule: Q01DX009 (ip), vehicle: saline 108 % of control

Cc1cccn2c(=O)c(/C=N\NC(N)=S)c(Cl)nc12
inactive: dose: 100.0 mg/kg/injection, schedule: Q01DX001 (ip), vehicle: carboxymethylcellulose (CMC) 105 % of control | dose: 200.0 mg/kg/injection, schedule: Q01DX001 (ip), vehicle: carboxymethylcellulose (CMC) 96 % of control | dose: 400.0 mg/kg/injection, schedule: Q01DX001 (ip), vehicle: carboxymethylcellulose (CMC) 94 % of control

O=C(COCC(=O)N/N=C/c1ccccc1O)N/N=C/c1ccccc1O
inactive: [4] 93 % of control | [5] 98 % of control and 103 % of control | [1] 109 % of control | [6] 110 % of control | [7] 92 % of control | [8] 94 % of control and 98 % of control | [2] 91 % of control | [9] 108 % of control | [10] 91 % of control | [11] 95 % of control and 87 % of control | [3] 100 % of control | [12] 105 % of control

CCCCCCCCCCCCCC(=O)CC(=O)OC
inactive: dose: 75.0 mg/kg/injection, schedule: Q04DX003 (ip), vehicle: Klucel (hydroxypropylcellulose) (HPC) 94 % of control | [4] 103 % of control | dose: 150.0 mg/kg/injection, schedule: Q04DX003 (ip), vehicle: Klucel (hydroxypropylcellulose) (HPC) 106 % of control | [7] 100 % of control | dose: 300.0 mg/kg/injection, schedule: Q04DX003 (ip), vehicle: Klucel (hydroxypropylcellulose) (HPC) 93 % of control | [10] 96 % of control

N#Cc1[nH]cnc1/N=N/N(CCF)CCF
inactive: dose: 9.5 mg/kg/injection, schedule: Q01DX009 (ip), vehicle: saline with Tween-80 101 % of control | dose: 18.0 mg/kg/injection, schedule: Q01DX009 (ip), vehicle: saline with Tween-80 121 % of control | dose: 18.0 mg/kg/injection, schedule: Q04DX003 (ip), vehicle: saline with Tween-80 98 % of control | dose: 37.0 mg/kg/injection, schedule: Q04DX003 (ip), vehicle: saline with Tween-80 116 % of control

N#CC(C#N)=NNc1ccc(S(=O)(=O)O)cc1
inactive: dose: 100.0 mg/kg/injection, schedule: Q04DX003 (ip), vehicle: saline with Tween-80 94 % of control | dose: 200.0 mg/kg/injection, schedule: Q04DX003 (ip), vehicle: saline with Tween-80 107 % of control | dose: 400.0 mg/kg/injection, schedule: Q04DX003 (ip), vehicle: saline with Tween-80 102 % of control

COc1ccc(NC(=O)Nc2cccc(C(=O)O)c2)c(OC)c1
inactive: [1] 101 % of control | [2] 104 % of control | [3] 97 % of control

O=C(Nc1cc(Cl)ccc1Cl)c1ccccc1Cl
inactive: [5] 94 % of control | [6] 102 % of control | [8] 87 % of control | [9] 97 % of control | [11] 92 % of control | [12] 91 % of control

CCCC/C=C/CCl
inactive: [13] 88 % of control | dose: 100.0 mg/kg/injection, schedule: Q04DX003 (ip), vehicle: saline 102 % of control | [14] 91 % of control | dose: 200.0 mg/kg/injection, schedule: Q04DX003 (ip), vehicle: saline 95 % of control | [15] 90 % of control | dose: 400.0 mg/kg/injection, schedule: Q04DX003 (ip), vehicle: saline 98 % of control

CN(C)CCCN=Cc1cc(Cl)ccc1O.CN(C)CCCN=Cc1cc(Cl)ccc1O.[Ni+2]
inactive: dose: 6.25 mg/kg/injection, schedule: Q04DX003 (ip), vehicle: saline with Tween-80 92 % of control | dose: 12.5 mg/kg/injection, schedule: Q04DX003 (ip), vehicle: saline with Tween-80 105 % of control | dose: 25.0 mg/kg/injection, schedule: Q04DX003 (ip), vehicle: saline with Tween-80 97 % of control

CN(C)NC(=O)/C=C\C(=O)O
inactive: dose: 100.0 mg/kg/injection, schedule: Q04DX002 (ip), vehicle: saline with Tween-80 93 % of control | dose: 200.0 mg/kg/injection, schedule: Q04DX002 (ip), vehicle: saline with Tween-80 100 % of control | dose: 400.0 mg/kg/injection, schedule: Q04DX002 (ip), vehicle: saline with Tween-80 93 % of control

CC1(C)CCc2c(O)c(N=O)c3ccccc3c2O1
inactive: dose: 100.0 mg/kg/injection, schedule: Q01DX001 (ip), vehicle: saline with Tween-80 103 % of control | dose: 200.0 mg/kg/injection, schedule: Q01DX001 (ip), vehicle: saline with Tween-80 95 % of control | dose: 400.0 mg/kg/injection, schedule: Q01DX001 (ip), vehicle: saline with Tween-80 95 % of control

O=C(O)C(CS)NS(=O)(=O)Cc1ccccc1 (stereo not drawn)
inactive: dose: 100.0 mg/kg/injection, schedule: Q01DX001 (ip), vehicle: other 104 % of control | dose: 200.0 mg/kg/injection, schedule: Q01DX001 (ip), vehicle: other 94 % of control | dose: 400.0 mg/kg/injection, schedule: Q01DX001 (ip), vehicle: other 100 % of control

COC(=O)/C=C(\C)CCC1OC1(C)C (stereo not drawn)
inactive: [13] 105 % of control | dose: 100.0 mg/kg/injection, schedule: Q04DX003 (ip), vehicle: acetone 95 % of control | [14] 100 % of control | dose: 200.0 mg/kg/injection, schedule: Q04DX003 (ip), vehicle: acetone 108 % of control | [15] 94 % of control | dose: 400.0 mg/kg/injection, schedule: Q04DX003 (ip), vehicle: acetone 103 % of control

O=C(O)c1cc(Cl)ccn1
inactive: dose: 25.0 mg/kg/injection, schedule: Q01DX009 (ip), vehicle: Klucel (hydroxypropylcellulose) (HPC) 98 % of control | dose: 50.0 mg/kg/injection, schedule: Q01DX009 (ip), vehicle: Klucel (hydroxypropylcellulose) (HPC) 102 % of control | [5] 101 % of control and 107 % of control

O=Cc1ccc(OS(=O)(=O)c2ccc([N+](=O)[O-])cc2)cc1
inactive: [5] 97 % of control | [8] 98 % of control | [11] 90 % of control

O=C1C(OC(=O)c2ccccc2)=C(c2ccc(O)cc2)C(=O)C(OC(=O)c2ccccc2)=C1c1ccc(O)cc1
inactive: dose: 12.5 mg/kg/injection, schedule: Q01DX Z (ip), vehicle: carboxymethylcellulose (CMC) 94 % of control | dose: 25.0 mg/kg/injection, schedule: Q01DX Z (ip), vehicle: carboxymethylcellulose (CMC) 94 % of control | dose: 50.0 mg/kg/injection, schedule: Q01DX Z (ip), vehicle: carboxymethylcellulose (CMC) 105 % of control | dose: 100.0 mg/kg/injection, schedule: Q01DX Z (ip), vehicle: carboxymethylcellulose (CMC) 102 % of control

From PubChem BioAssay AID248 (DTP/NCI, 2004)
